Experimental data published in ChEMBL document CHEMBL1201862, “PubChem BioAssay data set” (2004).
Active and inactive are the calls of the source.

Legend:
[1] = biological target: Nonstructural protein 1 (Influenza A virus, UniProt Q194T2); assay type: functional, Influenza A virus (A/California/07/2009(H1N1))
[2] = Luminescence Cell-Based Dose Retest to Confirm Inhibitors of Cancer Stem Cells. [Related pubchem assays (depositor defined):AID2717, AID2721]; assay type: functional; conditions: Homo sapiens
[3] = enhancers of respiration in Yfh1-depleted yeast, dose response, Friedreich's ataxia, plus single-dose screen (AID 1465); assay type: functional;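 note: yeast depleted of Yfh1p frataxin homolog grown on glycerol needing respiration; WST-1 tetrazolium dye reduction as measure of cellular dehydrogenase metabolic activity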
[4] = biological target: Epstein-Barr nuclear antigen 1 (Epstein-Barr virus (strain B95-8) (HHV-4) (Human herpesvirus 4), UniProt P03211); assay: EBNA-1 inhibitors, dose response, biochemical, fluorescence polarization, 1536-well (AID 2381); parameters: species or system human gammaherpesvirus 4;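 note: fluorescence polarization of a Cy5 DNA probe bound by EBNA-1 protein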
Epstein-Barr nuclear antigen 1, sequence (P03211 whole entry): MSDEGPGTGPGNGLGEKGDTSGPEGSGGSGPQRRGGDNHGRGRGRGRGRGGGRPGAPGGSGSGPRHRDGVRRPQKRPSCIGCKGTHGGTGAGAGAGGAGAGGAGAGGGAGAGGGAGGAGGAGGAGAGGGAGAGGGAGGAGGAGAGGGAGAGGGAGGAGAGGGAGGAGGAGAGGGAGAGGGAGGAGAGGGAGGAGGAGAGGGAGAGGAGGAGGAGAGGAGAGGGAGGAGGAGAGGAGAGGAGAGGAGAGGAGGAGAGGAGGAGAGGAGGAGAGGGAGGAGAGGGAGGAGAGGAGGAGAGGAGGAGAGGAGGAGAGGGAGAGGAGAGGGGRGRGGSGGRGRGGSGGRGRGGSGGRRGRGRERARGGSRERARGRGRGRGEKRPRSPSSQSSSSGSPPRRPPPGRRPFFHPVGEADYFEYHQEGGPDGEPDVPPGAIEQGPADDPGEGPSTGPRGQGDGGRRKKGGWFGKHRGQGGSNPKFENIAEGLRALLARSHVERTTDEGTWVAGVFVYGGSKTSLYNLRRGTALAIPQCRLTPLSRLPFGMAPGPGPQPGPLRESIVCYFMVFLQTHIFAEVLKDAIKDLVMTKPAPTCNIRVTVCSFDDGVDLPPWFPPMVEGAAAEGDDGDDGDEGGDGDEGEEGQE

[5] = biological target: Lytic switch protein BZLF1 (Epstein-Barr virus (strain B95-8) (HHV-4) (Human herpesvirus 4), UniProt P03206); assay: EBV ZTA inhibitors, dose response, counter-screen for EBNA-1 inhibitor project, biochemical, fluorescence polarization, Epstein-Barr virus, 1536-well (AID 2377); parameters: species or system human gammaherpesvirus 4;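 note: fluorescence polarization of Cy5-labelled ZRE DNA probe bound by purified Zta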
Lytic switch protein BZLF1, sequence (P03206 whole entry): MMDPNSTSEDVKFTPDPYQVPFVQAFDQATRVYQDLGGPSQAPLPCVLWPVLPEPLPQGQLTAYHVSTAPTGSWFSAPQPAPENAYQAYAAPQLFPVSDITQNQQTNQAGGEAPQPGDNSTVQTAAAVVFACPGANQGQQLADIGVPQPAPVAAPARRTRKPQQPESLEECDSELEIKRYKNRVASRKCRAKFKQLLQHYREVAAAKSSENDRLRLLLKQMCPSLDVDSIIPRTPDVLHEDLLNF

[6] = biological target: Cytochrome P450 2C19 (Homo sapiens, UniProt P33261); assay: Cytochrome panel assay with activity outcomes. Panel member name: p450-cyp2c19 Compounds with AC50 equal or less than 10 uM are considered active; assay type: functional; conditions: read-out: AC50
[7] = biological target: Cytochrome P450 2C9 (Homo sapiens, UniProt P11712)
[8] = biological target: T1, Cytochrome P450 1A2 (Homo sapiens, UniProt P05177);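 note: PubChem cytochrome P450 panel assay, CYP1A2 panel member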
T1 sequence (P05177 whole entry): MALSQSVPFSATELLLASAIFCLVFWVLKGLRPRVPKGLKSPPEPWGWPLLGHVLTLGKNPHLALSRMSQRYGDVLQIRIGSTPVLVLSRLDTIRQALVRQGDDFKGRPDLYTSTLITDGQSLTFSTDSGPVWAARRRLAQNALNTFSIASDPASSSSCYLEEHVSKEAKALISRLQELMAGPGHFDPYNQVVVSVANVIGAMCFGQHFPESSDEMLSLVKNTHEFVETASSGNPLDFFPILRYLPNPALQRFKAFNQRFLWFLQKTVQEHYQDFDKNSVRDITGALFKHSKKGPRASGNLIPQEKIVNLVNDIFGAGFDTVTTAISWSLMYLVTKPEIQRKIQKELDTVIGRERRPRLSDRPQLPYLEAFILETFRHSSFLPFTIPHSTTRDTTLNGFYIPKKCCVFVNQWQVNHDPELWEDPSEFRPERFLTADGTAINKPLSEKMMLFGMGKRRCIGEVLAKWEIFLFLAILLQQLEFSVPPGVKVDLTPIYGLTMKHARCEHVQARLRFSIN

[9] = biological target: Peroxisome proliferator-activated receptor gamma/Nuclear receptor coactivator 2 (Homo sapiens, UniProt P37231); assay type: functional;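 note: agonist potency for raising coactivator recruitment to the receptor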
Peroxisome proliferator-activated receptor gamma/Nuclear receptor coactivator 2, sequence (P37231 whole entry): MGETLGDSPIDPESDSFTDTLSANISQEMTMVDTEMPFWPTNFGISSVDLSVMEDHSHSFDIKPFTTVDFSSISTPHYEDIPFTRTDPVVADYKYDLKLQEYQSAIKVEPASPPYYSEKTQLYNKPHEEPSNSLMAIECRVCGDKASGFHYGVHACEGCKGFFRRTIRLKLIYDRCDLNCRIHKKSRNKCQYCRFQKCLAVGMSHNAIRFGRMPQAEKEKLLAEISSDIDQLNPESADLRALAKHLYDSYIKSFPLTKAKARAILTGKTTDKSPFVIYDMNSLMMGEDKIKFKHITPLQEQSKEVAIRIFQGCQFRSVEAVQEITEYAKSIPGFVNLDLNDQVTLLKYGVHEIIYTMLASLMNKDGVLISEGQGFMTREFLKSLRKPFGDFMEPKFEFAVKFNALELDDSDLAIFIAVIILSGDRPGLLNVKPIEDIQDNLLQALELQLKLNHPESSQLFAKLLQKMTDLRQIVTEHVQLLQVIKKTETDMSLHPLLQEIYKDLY
Peroxisome proliferator-activated receptor gamma/Nuclear receptor coactivator 2, sequence (Q15596 whole entry, further chain): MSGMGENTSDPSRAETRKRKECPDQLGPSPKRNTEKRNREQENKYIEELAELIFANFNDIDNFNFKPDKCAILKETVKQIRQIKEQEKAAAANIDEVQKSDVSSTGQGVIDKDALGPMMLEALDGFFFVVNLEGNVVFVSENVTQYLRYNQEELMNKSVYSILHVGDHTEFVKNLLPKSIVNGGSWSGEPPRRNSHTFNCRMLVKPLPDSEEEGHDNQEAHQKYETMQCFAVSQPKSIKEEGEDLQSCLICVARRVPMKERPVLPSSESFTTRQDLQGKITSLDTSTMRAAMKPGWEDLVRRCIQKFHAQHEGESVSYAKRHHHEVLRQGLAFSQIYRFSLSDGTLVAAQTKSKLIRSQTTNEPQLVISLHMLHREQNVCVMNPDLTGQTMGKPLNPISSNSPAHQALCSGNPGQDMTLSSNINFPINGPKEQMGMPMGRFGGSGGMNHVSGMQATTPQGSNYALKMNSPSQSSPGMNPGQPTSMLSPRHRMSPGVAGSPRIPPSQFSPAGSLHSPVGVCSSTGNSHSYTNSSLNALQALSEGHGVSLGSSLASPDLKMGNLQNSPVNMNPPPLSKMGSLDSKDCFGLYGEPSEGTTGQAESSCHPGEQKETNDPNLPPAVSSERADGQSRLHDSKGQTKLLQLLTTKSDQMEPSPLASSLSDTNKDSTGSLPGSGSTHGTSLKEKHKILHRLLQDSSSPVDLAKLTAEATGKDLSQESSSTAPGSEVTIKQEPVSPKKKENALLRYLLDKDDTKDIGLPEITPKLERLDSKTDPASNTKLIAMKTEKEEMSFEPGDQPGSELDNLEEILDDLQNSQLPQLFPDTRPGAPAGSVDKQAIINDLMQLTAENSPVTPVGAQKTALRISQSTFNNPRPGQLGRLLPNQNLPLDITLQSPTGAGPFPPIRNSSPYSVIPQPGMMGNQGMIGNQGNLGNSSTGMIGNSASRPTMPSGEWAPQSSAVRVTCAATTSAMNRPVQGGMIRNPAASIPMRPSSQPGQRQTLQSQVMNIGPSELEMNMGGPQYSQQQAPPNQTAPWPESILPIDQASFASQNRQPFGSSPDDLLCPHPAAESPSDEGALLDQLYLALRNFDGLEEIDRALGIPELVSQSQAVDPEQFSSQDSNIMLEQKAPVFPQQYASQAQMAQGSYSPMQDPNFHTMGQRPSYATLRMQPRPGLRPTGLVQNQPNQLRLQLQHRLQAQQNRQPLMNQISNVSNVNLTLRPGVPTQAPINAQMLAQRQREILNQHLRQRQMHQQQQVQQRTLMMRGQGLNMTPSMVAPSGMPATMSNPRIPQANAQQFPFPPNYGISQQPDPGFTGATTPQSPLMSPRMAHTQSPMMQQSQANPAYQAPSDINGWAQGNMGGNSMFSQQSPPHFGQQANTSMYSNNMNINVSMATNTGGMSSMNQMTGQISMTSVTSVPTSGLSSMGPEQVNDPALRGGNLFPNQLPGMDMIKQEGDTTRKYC

[10] = biological target: Peroxisome proliferator-activated receptor gamma/Nuclear receptor coactivator 1 (Homo sapiens, UniProt P37231); assay type: functional;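 note: agonist potency as compounds enhance coactivator SRC-1 recruitment to PPARgamma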
[11] = biological target: Peroxisome proliferator-activated receptor gamma/Nuclear receptor coactivator 3 (Homo sapiens, UniProt P37231); assay type: functional;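 note: agonist potency for raising coactivator recruitment to the receptor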
Peroxisome proliferator-activated receptor gamma/Nuclear receptor coactivator 3, sequence (P37231 whole entry): as the sequence (P37231 whole entry) above
Peroxisome proliferator-activated receptor gamma/Nuclear receptor coactivator 3, sequence (Q9Y6Q9 whole entry, further chain): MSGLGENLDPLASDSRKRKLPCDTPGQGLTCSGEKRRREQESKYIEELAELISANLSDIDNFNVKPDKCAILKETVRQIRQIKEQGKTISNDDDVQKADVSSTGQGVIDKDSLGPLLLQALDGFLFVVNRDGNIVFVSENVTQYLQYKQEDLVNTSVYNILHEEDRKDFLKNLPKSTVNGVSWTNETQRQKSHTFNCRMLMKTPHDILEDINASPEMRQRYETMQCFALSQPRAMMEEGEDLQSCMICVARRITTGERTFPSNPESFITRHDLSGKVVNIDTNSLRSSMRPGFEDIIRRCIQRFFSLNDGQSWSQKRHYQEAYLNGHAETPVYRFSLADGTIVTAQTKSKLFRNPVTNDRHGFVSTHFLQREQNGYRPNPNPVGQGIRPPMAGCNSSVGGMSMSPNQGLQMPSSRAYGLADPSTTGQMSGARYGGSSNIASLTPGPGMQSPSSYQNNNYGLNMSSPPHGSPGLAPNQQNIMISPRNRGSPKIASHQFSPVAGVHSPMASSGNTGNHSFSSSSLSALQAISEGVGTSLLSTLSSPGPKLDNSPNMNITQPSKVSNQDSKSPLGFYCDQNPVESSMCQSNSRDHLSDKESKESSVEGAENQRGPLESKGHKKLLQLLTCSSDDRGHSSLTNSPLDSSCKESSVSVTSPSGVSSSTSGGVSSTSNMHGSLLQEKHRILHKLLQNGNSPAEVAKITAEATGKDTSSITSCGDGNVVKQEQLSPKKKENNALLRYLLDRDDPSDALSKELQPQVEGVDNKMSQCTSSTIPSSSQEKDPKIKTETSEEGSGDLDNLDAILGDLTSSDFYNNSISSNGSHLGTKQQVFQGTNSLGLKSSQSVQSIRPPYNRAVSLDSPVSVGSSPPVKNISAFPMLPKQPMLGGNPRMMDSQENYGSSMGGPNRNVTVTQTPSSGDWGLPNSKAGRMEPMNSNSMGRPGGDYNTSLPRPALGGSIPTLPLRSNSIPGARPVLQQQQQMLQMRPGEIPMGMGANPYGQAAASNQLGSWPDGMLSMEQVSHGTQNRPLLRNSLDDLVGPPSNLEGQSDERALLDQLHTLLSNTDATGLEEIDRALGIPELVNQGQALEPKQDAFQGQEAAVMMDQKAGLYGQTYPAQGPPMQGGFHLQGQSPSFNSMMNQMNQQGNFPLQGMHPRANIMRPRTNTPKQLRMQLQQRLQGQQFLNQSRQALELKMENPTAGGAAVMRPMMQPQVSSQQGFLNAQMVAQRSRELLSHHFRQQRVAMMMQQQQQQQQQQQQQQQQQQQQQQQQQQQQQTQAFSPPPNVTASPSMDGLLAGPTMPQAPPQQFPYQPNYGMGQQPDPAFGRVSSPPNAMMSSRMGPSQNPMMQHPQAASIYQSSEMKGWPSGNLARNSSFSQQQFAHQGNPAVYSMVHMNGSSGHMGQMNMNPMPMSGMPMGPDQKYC

[12] = biological target: Long-chain-fatty-acid--AMP ligase FadD28 (Mycobacterium tuberculosis, UniProt P9WQ59); assay: Fluorescence polarization aasay to screen for inhibitors that compete for the binding of FadD28 to a bisubstrate Measured in Biochemical System Using Plate Reader - 2147-01_Inhibitor_Dose_CherryPick_Activity.; assay type: functional, Mycobacterium tuberculosis H37Rv
[13] = biological target: FAD-linked sulfhydryl oxidase ALR (Homo sapiens, UniProt P55789); assay: inhibitors of human ALR sulfhydryl oxidase, dose response, biochemical, H2O2 detection, luminescence, cherry-pick (AID 493248)
[14] = biological target: T2, Corticotropin-releasing factor receptor 2/Corticotropin-releasing factor-binding protein (Homo sapiens, UniProt P24387+Q13324); assay: activators of CRF receptor 2 with binding protein – uHTS hits, confirmation (AID 602473); assay type: functional; conditions: read-out: EC50_Mean
T2 sequence (Q13324 whole entry): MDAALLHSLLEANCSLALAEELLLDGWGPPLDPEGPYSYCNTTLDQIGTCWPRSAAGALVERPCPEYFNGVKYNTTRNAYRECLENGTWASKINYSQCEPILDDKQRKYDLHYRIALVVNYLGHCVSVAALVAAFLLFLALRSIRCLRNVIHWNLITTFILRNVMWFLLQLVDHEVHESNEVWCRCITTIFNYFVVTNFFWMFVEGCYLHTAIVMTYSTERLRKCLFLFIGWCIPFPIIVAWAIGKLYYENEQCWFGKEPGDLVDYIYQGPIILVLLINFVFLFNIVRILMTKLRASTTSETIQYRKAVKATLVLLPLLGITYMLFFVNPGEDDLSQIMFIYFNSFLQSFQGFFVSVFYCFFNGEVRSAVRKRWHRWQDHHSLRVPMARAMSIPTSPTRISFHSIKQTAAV
T2 sequence (P24387 whole entry): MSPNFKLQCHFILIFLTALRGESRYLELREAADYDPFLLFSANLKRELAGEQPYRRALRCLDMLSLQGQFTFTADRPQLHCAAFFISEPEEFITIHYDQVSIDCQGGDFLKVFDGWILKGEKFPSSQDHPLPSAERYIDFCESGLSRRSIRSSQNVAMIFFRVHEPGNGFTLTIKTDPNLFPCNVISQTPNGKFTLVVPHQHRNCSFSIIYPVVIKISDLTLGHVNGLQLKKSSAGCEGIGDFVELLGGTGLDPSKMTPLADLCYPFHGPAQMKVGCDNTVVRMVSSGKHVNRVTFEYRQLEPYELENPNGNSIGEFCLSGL

Nonstructural protein 1, sequence (Q194T2 whole entry): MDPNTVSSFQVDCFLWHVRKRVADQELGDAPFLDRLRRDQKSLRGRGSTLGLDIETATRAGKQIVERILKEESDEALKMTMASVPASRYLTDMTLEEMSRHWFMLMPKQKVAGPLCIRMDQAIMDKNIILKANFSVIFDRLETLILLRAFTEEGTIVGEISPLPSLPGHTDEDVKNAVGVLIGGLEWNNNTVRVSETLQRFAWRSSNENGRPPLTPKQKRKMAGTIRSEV

| Structure (SMILES) | EC50 [3] | IC50 [4] | IC50 [5] | EC50 [9] | EC50 [10] | EC50 [11] | further results |
| --- | --- | --- | --- | --- | --- | --- | --- |
| CC(=O)NC(c1ccccc1)c1cc([N+](=O)[O-])c2cccnc2c1O (stereo not given) | > 100 µM (active) |  |  |  |  |  | IC50 [1]: 5.52 µM (active); AC50 [2]: 1.69 µM (active) |
| CCc1nnc(NC(=O)CSc2nc3cc4c(cc3cc2C)OCCO4)s1 |  | 5.82 µM (active) | > 111 µM (not active) |  |  |  | AC50 [6]: 6.31 µM (inconclusive); AC50 [7]: 398 nM (inconclusive); AC50 [8]: 1.58 µM (inconclusive) |
| CC(C)(C)C1CCc2c(sc(NC(=O)c3cccs3)c2C(N)=O)C1 (stereo not given) |  |  |  | > 79.4 µM (not active) | > 79.4 µM (not active) | > 79.4 µM (not active) |  |
| CCOCCn1/c(=N/C(=O)c2cc(Cl)sc2Cl)sc2cc(S(N)(=O)=O)ccc21 |  |  |  | 14 µM (not active) | 13.4 µM (not active) | 16.8 µM (not active) |  |
| O=C(NN/C=C1\C(=O)N(c2ccc(Cl)cn2)C(=O)c2ccccc21)c1ccncc1 | > 100 µM (active) |  |  |  |  |  | AC50 [12]: > 100 µM (inactive); AC50 [13]: 5.43 µM (active); EC50 [14]: 6.13 µM (active) |
| NS(=O)(=O)c1ccc(NC(=S)NC(=O)c2ccc3c(c2)OCO3)cc1 |  | 19.5 µM (not active) | 33.3 µM (not active) |  |  |  |  |
